# In patent publication US20090123501A1, “INHIBITION OF THE SH2-DOMAIN CONTAINING PROTEIN TYR-PHOSPHATASE, SHP-1, TO ENHANCE VACCINES” (Baylor College of Medicine, priority 2007, published 2009):
# T1: H-2D^b (Mus musculus, UniProt P01899)
# T1 construct: lower relative expression of H-2D^b on RMA-S cells compared to H-2K^b; endogenous in cells; host or cells: RMA-S
# T1 sequence (P01899 25-362): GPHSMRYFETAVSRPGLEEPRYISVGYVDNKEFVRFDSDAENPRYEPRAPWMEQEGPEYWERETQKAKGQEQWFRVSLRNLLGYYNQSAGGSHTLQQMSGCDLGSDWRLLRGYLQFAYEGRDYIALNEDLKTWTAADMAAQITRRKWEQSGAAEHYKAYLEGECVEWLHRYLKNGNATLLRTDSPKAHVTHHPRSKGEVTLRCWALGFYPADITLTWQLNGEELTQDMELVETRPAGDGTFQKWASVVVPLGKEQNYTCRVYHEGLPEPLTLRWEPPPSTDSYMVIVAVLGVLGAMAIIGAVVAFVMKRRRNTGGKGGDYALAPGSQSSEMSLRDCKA
# T1 sequence (P01887 21-119 partner): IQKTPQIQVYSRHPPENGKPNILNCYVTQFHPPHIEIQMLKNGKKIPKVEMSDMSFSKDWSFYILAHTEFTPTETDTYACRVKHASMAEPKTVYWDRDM
# T2: H-2K^b (mouse, UniProt P01887 21-119; P01901 22-305, limits assumed)
# T2 construct: whole, on cells;extracellular; MHC class I on RMA-S cells, detected with antibody Y-3 (ATCC-HB176) in a surface stabilization assay; also called MHC class 1 molecule H-2K^b
# T2 sequence (MHC heavy, looked up): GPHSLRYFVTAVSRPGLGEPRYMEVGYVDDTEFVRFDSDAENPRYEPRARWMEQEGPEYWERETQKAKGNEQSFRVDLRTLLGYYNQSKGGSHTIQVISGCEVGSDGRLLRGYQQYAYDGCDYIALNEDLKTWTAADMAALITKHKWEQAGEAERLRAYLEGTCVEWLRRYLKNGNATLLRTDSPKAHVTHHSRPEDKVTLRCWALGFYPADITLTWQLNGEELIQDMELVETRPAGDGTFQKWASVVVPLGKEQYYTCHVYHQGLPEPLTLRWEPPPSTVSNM
# T2 sequence (b2m, looked up): T1 sequence (P01887 21-119 partner)
# T3: H-2D^b (mouse, UniProt P01887 21-119; P01899 25-309)
# T3 construct: whole, on cells;extracellular; MHC class I on RMA-S cells, detected with antibody 28-14-8S (ATCC-HB27) in a surface stabilization assay; also called MHC class 1 molecule H-2D^b
# T3 sequence (MHC heavy, looked up): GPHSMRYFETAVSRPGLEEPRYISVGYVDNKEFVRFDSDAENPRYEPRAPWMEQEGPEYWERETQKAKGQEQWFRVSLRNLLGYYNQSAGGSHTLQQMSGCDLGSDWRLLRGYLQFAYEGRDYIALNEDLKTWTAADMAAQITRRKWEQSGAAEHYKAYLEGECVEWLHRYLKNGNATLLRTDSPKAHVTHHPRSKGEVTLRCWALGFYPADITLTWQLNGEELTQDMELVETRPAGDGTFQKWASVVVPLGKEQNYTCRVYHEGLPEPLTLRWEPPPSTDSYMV
# T3 sequence (b2m, looked up): T1 sequence (P01887 21-119 partner)
# B1: STEAP186-192 (peptide)
# peptide: RSYRYKLL
# B2: STEAP84-91 (peptide)
# peptide: LTFLYTLL
# B3: STEAP327-335 (peptide)
# peptide: VSKINRTEM
# B4: PSCA29-37 (peptide)
# peptide: AQMNNRDCL
# Legend:
# H-2D^b [1] = target: T1, H-2D^b; experiment: MHC class I surface stabilization assay on RMA-S cells, H-2Db; assay type: binding; details: RMA-S cells pulsed with peptide overnight, flow cytometry
# Procedure: (§1) 10^6 RMA-S cells were incubated overnight at 37° C. with each of the five predicted at the concentrations indicated. Cells were stained with antibodies for H-2K^b (Y-3; ATCC-HB176) or H-2D^b (28-14-8S; ATCC-HB27) followed by a goat anti-mouse-FITC second step and MHC class I surface expression was analyzed by flow cytometry. Specific MFI is the mean fluorescent intensity of the sample-mean fluorescent intensity of goat anti-mouse-FITC second step alone. Error bars represent the standard deviation of triplicate measurements.
# (§2) The binding affinity of the five predicted peptides was tested. In a surface stabilization assay using the TAP1 deficient cell line RMA-S. RMA-S cells were pulsed with peptide, at the indicated concentrations, and incubated overnight. Cells were stained with antibodies for H-2K^b (Y-3; ATCC-HB176) or H-2D^b (28-14-8S; ATCC-HB27) followed by a fluorescent-labeled secondary antibody and MHC class I surface expression was analyzed by flow cytometry.
# TRAMP C2 tumors = experiment: DC vaccination of mice bearing ectopic TRAMP C2 tumors; assay type: in vivo, C57BL/6 mice; details: for TRAMP C2 tumor growth (growth curves, mean tumor volumes): by peptide loaded on DC vaccine, single i.p. vaccination 2×10^6 DCs, vs untreated mice; for TRAMP C2 tumor growth rate (mean tumor volume at day 48 post-vaccination, ANOVA): by peptide, pooled across viral treatments, vs no vaccination
# Procedure: BMDCs were prepared as described above, transduced with either Ad5-SHP-1-shRNA or the control Ad5-scrambled-shRNA at 40,000 viral particles/cell, and pulsed with one of the six peptides listed in Table 1 (OVA, an irrelevant epitope to TRAMP 2 tumors, served as a negative control peptide) or a lysate of TRAMP C2 cells as a positive control antigen. 6-8 week C57BL/6 mice, bearing TRAMP C2 tumors (7×10^6 cells injected s.c. on the dorsal flank three days prior to vaccination), were given a single i.p. vaccination with 2×10^6 treated DCs or left untreated. Tumors were measured (length and width using calipers) every 2-4 days until termination of the study and tumor volume was estimated using the formula: Tumor volume (mm3)=x^2y×0.5236, where x is the smaller tumor dimension, and y is the larger tumor dimension. A-G) TRAMP tumor growth curves for vaccines loaded with the indicated peptides. Error bars represent the standard error of the mean of 5 mice vaccinated in each treatment. […] H-I) ANOVA analysis of peptide function and SHP-1 function. Data represent the averages 10 mice per peptide treatment and 5 mice in the no treatment control group for H) and 35 mice per viral transduction treatment and 5 mice in the no treatment control group for I). The green diamonds represent the mean and 95% confidence interval for each group from the ANOVA. The black line is the mean of means for the study and red symbols indicate significant differences (p<0.05 by Tukey-Kramer HSD multiple comparisons test).
# To determine if there was a significant difference between the various peptides used in these DC vaccinations, mice were pooled across viral treatments (Ad5-SHP-1 shRNA or Ad5-scrambled-shRNA) employing the same peptide. An ANOVA for differences in mean tumor volume at day 48 post-vaccination (the time at which the majority of the vaccinated tumor growth curves change slope) and Tukey-Kramer HSD multiple comparisons test.
# Next experiments were conducted to determine if vaccines transduced with Ad5-SHP-1-shRNA inhibited tumor growth compared to transduction with Ad5-scrambled-shRNA or no vaccine treatment, irrespective of what peptide was used in the vaccine.
# total splenocytes = experiment: T cell subsets in total splenocytes 7 days after DC vaccination, flow cytometry; assay type: in vivo, C57BL/6 mice; details: by peptide, viral treatments pooled, day 7, vs no treatment control
# Procedure: To determine the effect of SHP-1 inhibition on the initiation of T cell responses, BMDCs were cultured and CD11c^+ MACS purified as described above. […] Following peptide loading DCs were left untreated or transduced with one of 3 different adenoviral vectors: 1) Ad5-SHP-1-shRNA; 2) Ad5-scrambled-shRNA; or 3) Ad5-CMV-empty, an adenovirus carrying a CMV promoter expression vector but no insert. […] Using all combinations of peptide and virus treatment yielded 9 experimental vaccines and one no vaccine control. Vaccines (2×10^6 DCs) were injected i.p. into wt C57BL/6 mice. Seven days following vaccination mice were sacrificed and total splenocytes were analyzed by multi-color flow cytometry for the expression of several T cell subsets. CD3^+ CD8^+IFNγ^+ cells were characterized as CTL effectors, CD3^+ CD4^+IFNγ^+ cells were characterized as Th1 helper T cells, and CD4^+ FOXP3^+ cells were characterized as Treg cells. Flow cytometry data were analyzed by one-way analysis of variance (ANOVA) and Tukey-Kramer HSD multiple comparisons test for percentage of cells falling within each population following treatment. Cells were stained with anti-CD3, anti-CD8 and anti IFNγ to differentiate CD8^+ effectors and CD4^+ Th1 T cell skewing or anti-CD4 and anti-FOXP3 to determine Tregs. To determine if there was a peptide specific effects between the 3 different tumor antigens, viral treatments were pooled for each peptide exposure. Data represent the averages 6 mice per peptide treatment group and 2 mice in the no treatment control group. No significant differences were seen between peptides in the induction of Tregs or CD8^+ effector cells.
# (§3) Following peptide loading DCs were left untreated or transduced with one of 3 different adenoviral vectors: 1) Ad5-SHP-1-shRNA; 2) Ad5-scrambled-shRNA; or 3) Ad5-CMV-empty, an adenovirus carrying a CMV promoter expression vector but no insert. Vaccines were injected i.p. into wt C57BL/6 mice and T cell skewing analyzed 7 days later by flow cytometry from total splenocytes. Cells were stained with anti-CD3, anti-CD8 and anti IFNγ for effector and Th1 cells or anti-CD4 and anti-FOXP3 for Tregs. For the peptide specific analysis viral treatments were pooled for each peptide exposure. Data represent the averages 6 mice per peptide treatment and two mice in the no treatment control group. The green diamonds represent the mean and 95% confidence interval for each group from the ANOVA. The black line is the mean of means for the study and red asterisk (*) indicates significant differences (p<0.05 by Tukey-Kramer HSD multiple comparisons test).
# as §3, with “the SHP-1” for “the peptide”, “each viral treatment.” for “each peptide exposure.”, “and 2” for “and two”, “ANOVA. […]” for “ANOVA. The black line is the mean of means for the study and red asterisk (*) indicates significant differences (p<0.05 by Tukey-Kramer HSD multiple comparisons test).”
# AP-1 signaling = experiment: AP-1-dependent secreted alkaline phosphatase reporter in RAW cells; assay type: cell-based, murine; details: transient transfection, IFNγ or LPS stimulation
# Procedure: Function of the mutant and wt SHP-1 constructs was tested in RAW cells by transient transfection of SHP-1 vectors along with a reporter construct expressing a secreted alkaline phosphatase driven by either an NFκB or AP-1 dependent promoter. NFκB and AP-1 are major transcription factors stimulated by toll-like receptor (TLR) and cytokine signaling in immune system cells, and represent likely pathways of SHP-1 inhibition on cellular activation. Cells were transfected with the appropriate construct, reporter and then stimulated with interferon-γ (IFNγ) or bacterial lipopolysaccharide (LPS) as ligands for cytokine and TLR receptors respectively.
# H-2K^b = target: T2, H-2K^b; experiment: RMA-S surface stabilization assay, flow cytometry with antibody Y-3
# Procedure: as §1, with “10⁶” for “10^6”, “measurements. This is representative of 3 separate studies.” for “measurements.”
# as §2, with “cytometry. […] STEAP₈₄₋₉₁ and STEAP₁₈₆₋₁₉₂ bound with an affinity near that of OVA₂₅₈₋₂₆₅, a well characterized strong binding H-2K^b epitope from chicken ovalbumin. […]” for “cytometry.”
# H-2D^b [2] = target: T3, H-2D^b; experiment: RMA-S surface stabilization assay, flow cytometry with antibody 28-14-8S
# Procedure: as §1, with “10⁶” for “10^6”, “measurements. This is representative of 3 separate studies.” for “measurements.”
# as §2, with “cytometry. […] STEAP₈₄₋₉₁ and STEAP₁₈₆₋₁₉₂ bound with an affinity near that of OVA₂₅₈₋₂₆₅, a well characterized strong binding H-2K^b epitope from chicken ovalbumin. […]” for “cytometry.”
molecule,measurement,setting,value
AQMNNRDCL [PSCA29-37],relative binding affinity to H-2Db (MHC class I surface expression),H-2D^b [1],did not appear to bind as well as some of the other peptides
same,"TRAMP C2 tumor growth (growth curves, mean tumor volumes)",TRAMP C2 tumors,strong inhibition of tumor growth
same,"TRAMP C2 tumor growth rate (mean tumor volume at day 48 post-vaccination, ANOVA)",TRAMP C2 tumors,significant decrease in tumor growth rate
LLLGTVHAL [STEAP262-270],relative binding affinity to H-2Db (MHC class I surface expression),H-2D^b [1],no detectable binding at any peptide concentration
"SIINFEKL [OVA258-265, reference compound]","TRAMP C2 tumor growth (growth curves, mean tumor volumes)",TRAMP C2 tumors,equivalent to mice receiving no vaccine treatment
"SVYDFFVWL [Trp-2, reference compound]",Th1 skewing,total splenocytes,significant
VSKINRTEM [STEAP327-335],relative binding affinity to H-2Db (MHC class I surface expression),H-2D^b [1],did not appear to bind as well as some of the other peptides
same,Th1 skewing,total splenocytes,significant
same,"TRAMP C2 tumor growth (growth curves, mean tumor volumes)",TRAMP C2 tumors,strong inhibition of tumor growth
same,"TRAMP C2 tumor growth rate (mean tumor volume at day 48 post-vaccination, ANOVA)",TRAMP C2 tumors,significant decrease in tumor growth rate
"ca-SHP-1: constitutively active SHP-1 mutant with N-terminal SH2 domain deleted, HA-tagged (SEQ ID NO:9)",AP-1 signaling,AP-1 signaling,suppressing AP-1 signaling
B1,binding result,H-2K^b,binds
B2,binding result,H-2K^b,binds
B3,binding result,H-2D^b [2],binds
B4,binding result,H-2D^b [2],binds
